This passage reports IC50 results from patent US20200147039A1, “COMPOUNDS USEFUL IN INHIBITING HUMAN TREFOIL FACTOR 3” (NATIONAL UNIVERSITY OF SINGAPORE, priority 2017, published 2020).

For the assay, the system named is MCF-7. Put plainly: AlamarBlue cell viability assay, MCF7. The conditions noted are these: Homo sapiens, MCF7, MCF-7, AlamarBlue cell viability (Table 8). In kind it is cell-based, human. An excerpt:
(A) Inhibitory concentration 50% (IC50) values for compound 43 in the MC cell lines are tabulated, using an AlamarBlue™ cell viability assay as previously described in Pandey V et al., Breast Cancer Res. 2014; 16(5):429. (B) Measured dose-dependent manner effect of compound 43 on the viability of MC cells (left-side, TFF3-high and right, TFF3-low) using AlamarBlue™ viability assay as previously described (ibid). (C) Apoptotic cell death of mammary carcinoma cell lines measured after treatment with 10 μM compound 43 using flow cytometry analysis at 24 hour as described previously in Keerthy H K et al., PloS one. 2014; 9(9):e107118. Annexin V-FITC staining is indicated on the X-axis and PI staining on the Y-axis. […] Acquisition of Annexin V and PI data were represented as percentage (%) in each quadrant. Note: CM, conditioned media; MCF10A and MCF12A, non-transformed immortalized-mammary epithelial cell line. Points are mean of triplicate experiments; bars, ±SD. Statistical significance was assessed by using an unpaired two-tailed Student's t test (P<0.05 was considered as significant) using GraphPad Prism5. Columns are mean of triplicate experiments; bars, ±SD. **P<0.001, *P<0.05.
The human immortalized mammary epithelial cell lines, MCF10A, and MCF12A; and immortalized hepatocellular epithelial cell line, LO2 were obtained from the American Type Culture Collection (ATCC, Rockville, Md.) and were cultured as per ATCC propagation instructions. MC cell lines, MCF7, T47D, BT474, BT20, MDA-MB-361, MDA-MB-436, MDA-MB-468, and MDA-MB-231; endometrial carcinoma cell lines, Ishikawa, ECC1, RL95-2 and AN3; hepatocellular carcinoma cell lines, Hep3B, H2P, and H2M; colon carcinoma cell lines, DLD-1, and Caco-2; and prostate carcinoma cell lines, PC3, LNCaP, and DU145 were obtained from the American Type Culture Collection (ATCC, Rockville, Md.). Pancreatic carcinoma cell lines, AsPC-1 and BxPC-3; Lung carcinoma cell lines, HCC-827, NCI-H1975, HCC-4006, PC-14, and NCI-H1299; and Thyroid carcinoma cell lines HTH83, CAL62, T238, and OGK-M were obtained from Prof. H. Phillip Koeffler's laboratory at The Cancer Science Institute of Singapore, National University of Singapore (NUS). Gastric carcinoma cell lines, AGS, MKN-28, MKN-45, and A2-528 were obtained from Prof. Yoshiaki Ito's laboratory at The Cancer Science Institute of Singapore, NUS. All cell lines were cultured as per ATCC propagation instructions.
The above synthesised compounds were initially evaluated against a range of carcinoma cells using an AlamarBlue™ cell viability assay (using the protocol discussed above). The tested compounds were generally efficacious at reducing the viability of various carcinoma cells compared to vehicle (DMSO) treated cells. Table 8 provides selected IC50 data for certain of the compounds synthesised herein against MCF-7.
In table 9 IC50 values of compound 43 compound library in several cancer cell lines are tabulated, using an AlamarBlue® cell viability assay as previously described in Pandey V et al., Breast Cancer Res. 2014; 16(5):429. Statistical analysis was assessed by using GraphPad Prism5. Note: NV, no value.

In the case of `COc1ccc2c3c(c(=O)oc2c1)C(c1ccc(-c2ccc(C)nc2)cc1)C(C#N)=C(N)O3` (centres unmarked) [Compound 153], the IC50 came out at 4.9 µM.

For the molecule `Cc1cc(-c2ccc(C3C(C#N)=C(NS(=O)(=O)c4ccccc4)Oc4c3c(=O)oc3ccccc43)cc2)cnc1F` (centres unmarked) [Compound 107], the midpoint of inhibition, the IC50, lay at 19.5 µM.

Consider `N#CC1=C(N)Oc2c(c(=O)oc3ccccc23)C1c1ccc(-c2ccc(Cl)c(C(F)(F)F)c2)cc1` (centres unmarked) [Compound 25], for which the IC50 worked out at 18.4 µM.

`COc1ccc2c3c(c(=O)oc2c1)C(c1ccc(-c2ccncc2)cc1)C(C#N)=C(N)O3` (centres unmarked) [Compound 146] showed an IC50 of 7.04 µM.

`COc1ccc(C2C(C#N)=C(NC(=O)c3ccc(C(F)(F)F)cc3)Oc3c2c(=O)oc2ccccc32)cc1-c1cnc(F)c(C)c1` (centres unmarked) [Compound 102] returned an IC50 of 33 µM.

`N#CC1=C(N)Oc2c(c(=O)oc3ccc(F)cc23)C1c1ccc(-c2cccc3ccccc23)cc1` (centres unmarked) [Compound 156] came in with an IC50 of 24.8 µM.

In turn, `N#CC1=C(N)Oc2c(c(=O)oc3ccccc23)C1c1ccc(-c2ccc(C(F)(F)F)cc2)cc1F` (centres unmarked) [Compound 134] had a 50% inhibitory concentration (IC50) of 1.84 µM.

`N#CC1=C(N)Oc2c(c(=O)oc3ccc(F)cc23)C1c1ccc(-c2ccc(Cl)cc2)cc1` (centres unmarked) [Compound 155] came in with an IC50 of 36.1 µM.

In turn, `COc1ccc(C2C(C#N)=C(N)Oc3c2c(=O)oc2ccccc32)cc1-c1cnc(F)c(C)c1` (centres unmarked) [Compound 91] had an IC50 of 11.8 µM.

`N#CC1=C(N)Oc2c(c(=O)oc3ccccc23)C1c1ccc(-c2ccc(Cl)cc2)cc1F` (centres unmarked) [Compound 137] showed an IC50 of 3.95 µM.

Regarding `Cc1ccc(-c2ccc(C3C(C#N)=C(N)Oc4c3c(=O)oc3ccc(F)cc43)cc2)cn1` (centres unmarked) [Compound 152], the IC50 stood at 77.6 µM.

Turning to `COc1ccc(CC(=O)NC2=C(C#N)C(c3ccc(OC)c(-c4cnc(F)c(C)c4)c3)c3c(c4ccccc4oc3=O)O2)cc1OC` (centres unmarked) [Compound 104], the IC50 was 8.96 µM.

Turning to `COc1ccc2c3c(c(=O)oc2c1)C(c1ccc(-c2ccccc2C)cc1)C(C#N)=C(N)O3` (centres unmarked) [Compound 163], inhibition was half-maximal at 22.8 µM (IC50).

With `COc1cccc(-c2ccc(C3C(C#N)=C(N)Oc4c3c(=O)oc3ccc(F)cc43)cc2)c1` (centres unmarked) [Compound 164], the IC50 came to 27.3 µM.

Regarding `N#CC1=C(N)Oc2c(c(=O)oc3ccccc23)C1c1ccc(-c2ccncc2)cc1` (centres unmarked) [Compound 121], the midpoint of inhibition, the IC50, lay at 15.8 µM.

Consider `N#CC1=C(N)Oc2c(c(=O)oc3ccc(F)cc23)C1c1ccc(-c2cccnc2)cc1` (centres unmarked) [Compound 144], for which inhibition was half-maximal at 6.85 µM (IC50).

Consider `COc1ccc(C2C(C#N)=C(NS(=O)(=O)c3ccc([N+](=O)[O-])cc3)Oc3c2c(=O)oc2ccccc32)cc1-c1cnc(F)c(C)c1` (centres unmarked) [Compound 112], for which the IC50 came to 101 µM.
